According to patent US20250340554A1, “5-Amino-1H-Pyrrolo[3,2-b]Pyridine-2-Carboxamide Derivatives as MTA-Cooperative Inhibitors of PRMT5” (BeOne Medicines I GmbH, priority 2023, published 2025):

Columns and labels:
HCT116-MTAP-KO = test: Compounds cell killing in HCT116 isogenic pair (Cell Titer-Glo viability), MTAP-KO cells; assay type: cell-based; conditions: Homo sapiens, HCT-116, 144 h, 6 days, 0-10 μM compound, * = more than 50% viability inhibition at tested concentration without a full curve
Text: (§1) HCT116 cell line was obtained from ATCC (CCL-247). It has a mutation in codon 13 of the ras proto-oncogene and can be used as a positive control for PCR assays of mutation in this codon. HCT116-MTAP-KO was knocked-out-MTAP-gene based HCT116, and one single clone was passed for this assay. HCT116-mock-RNA-KO was knocked-out-mock-gene based HCT116 with MTAP wildtype genotype. The base medium for HCT116 isogenic pair is RPMI 1640, HEPES (Gibco, 22400105). To make the complete growth medium, add the following components to the base medium: fetal bovine serum to a final concentration of 10% (Gibco, 10099-141C). The cell line was grown in a humidified 5% CO2 atmosphere at 37° C. and regularly tested for the presence of mycoplasma with MycoAlert™ PLUS Mycoplasma Detection Kit (Lonza, LT07-710).
(§2) • Seed HCT116-mock-RNA-KO (400/well) or HCT116-MTAP-KO (400/well) cells into a 96-well plate (Greiner: 655090), 100 μL/well. • Incubate at 37° C., 5% CO2, overnight. • Add 50 μL fresh growth-medium containing serial dilution of compounds for a final compound concentration of 0-10 μM to each well. • Incubate at 37° C., 5% CO2, 6 days. • The cell viability detected by Cell Titer-Glo (Promega, G7573). Add 70 μL of CellTiter-Glo® reagent in each well. • Incubate at room temperature for 10 minutes to stabilize luminescent signal. • Analyze with Microplate Reader (TECAN, SPARK) and fit IC50 using Prism® 9.

HCT116-mock-RNA-KO = test: Compounds cell killing in HCT116 isogenic pair (Cell Titer-Glo viability), mock-RNA-KO cells (MTAP wildtype); assay type: cell-based; conditions: Homo sapiens, HCT-116, 144 h, 6 days, 0-10 μM compound
Text: as §1, §2

Row | SMILES | IC50 (HCT116-MTAP-KO) [nM] | IC50 (HCT116-mock-RNA-KO) [nM]
1 | COCC(COC)N(Cc1ccc(-c2c(F)cccc2F)cn1)C(=O)c1cc2nc(N)c(C)cc2[nH]1 [Example B2, 5-amino-N-((5-(2,6-difluorophenyl)pyridin-2-yl)methyl)-N-(1,3-dimethoxypropan-2-yl)-6-methyl-1H-pyrrolo[3,2-b]pyridine-2-carboxamide] | 5.5 | 1220
2 | Cc1cc2[nH]c(C(=O)N(Cc3ccc(-c4ccccc4)cn3)C3CCCOC3)cc2nc1N (stereo not shown) [Example B8, 5-amino-6-methyl-N-((5-phenylpyridin-2-yl)methyl)-N-(tetrahydro-2H-pyran-3-yl)-1H-pyrrolo[3,2-b]pyridine-2-carboxamide] | 1350 | > 10000
3 | Cc1cc2[nH]c(C(=O)N(Cc3ccc(-c4c(F)cccc4F)cn3)[C@@H]3CCCc4cccnc43)c(Br)c2nc1N [Example A5, (R)-5-amino-3-bromo-N-((5-(2,6-difluorophenyl)pyridin-2-yl)methyl)-6-methyl-N-(5,6,7,8-tetrahydroquinolin-8-yl)-1H-pyrrolo[3,2-b]pyridine-2-carboxamide] | 167 | 3340
4 | Cc1cc2[nH]c(C(=O)N(Cc3ccc(-c4c(C)cnn4C)cn3)[C@@H]3CCCc4cccnc43)cc2nc1N [Example A4, (R)-5-amino-N-((5-(1,4-dimethyl-1H-pyrazol-5-yl)pyridin-2-yl)methyl)-6-methyl-N-(5,6,7,8-tetrahydroquinolin-8-yl)-1H-pyrrolo[3,2-b]pyridine-2-carboxamide] | 30 | 2360
5 | Cc1cc2[nH]c(C(=O)N(Cc3ccc(-c4c(F)cccc4F)cn3)[C@@H]3CCCc4c(C5CC5)ccnc43)cc2nc1N (stereo in doubt) [Example A6, 5-amino-N-(4-cyclopropyl-5,6,7,8-tetrahydroquinolin-8-yl)-N-((5-(2,6-difluorophenyl)pyridin-2-yl)methyl)-6-methyl-1H-pyrrolo[3,2-b]pyridine-2-carboxamide] | < 4.6 | 1490
6 | Cc1cc2[nH]c(C(=O)N(Cc3ccc(-c4c(Cl)cccc4Cl)cn3)C3CCCc4cccnc43)cc2nc1N (stereo not shown) [Example A10, 5-amino-N-((5-(2,6-dichlorophenyl)pyridin-2-yl)methyl)-6-methyl-N-(5,6,7,8-tetrahydroquinolin-8-yl)-1H-pyrrolo[3,2-b]pyridine-2-carboxamide] | 217 | 3480
7 | Cc1cc2[nH]c(C(=O)N(Cc3ccc(-c4c(F)cccc4F)cn3)[C@@H]3CCCc4cccnc43)c(F)c2nc1N [Example A17, (R)-5-amino-N-((5-(2,6-difluorophenyl)pyridin-2-yl)methyl)-3-fluoro-6-methyl-N-(5,6,7,8-tetrahydroquinolin-8-yl)-1H-pyrrolo[3,2-b]pyridine-2-carboxamide] | 66 | 2840
8 | Cc1cc2[nH]c(C(=O)N(Cc3ccc(-c4c(F)c(F)c(F)c(F)c4F)cn3)[C@@H]3CCCc4cccnc43)cc2nc1N [Example A11, (R)-5-amino-6-methyl-N-((5-(perfluorophenyl)pyridin-2-yl)methyl)-N-(5,6,7,8-tetrahydroquinolin-8-yl)-1H-pyrrolo[3,2-b]pyridine-2-carboxamide] | < 4.6 | 1470
9 | Cc1cc2[nH]c(C(=O)N(Cc3ccc(-c4c(F)cccc4F)cn3)C3CC(F)(F)C3)cc2nc1N [Example B3, 5-amino-N-(3,3-difluorocyclobutyl)-N-((5-(2,6-difluorophenyl)pyridin-2-yl)methyl)-6-methyl-1H-pyrrolo[3,2-b]pyridine-2-carboxamide] | 864 | > 10000
10 | Cc1cc2[nH]c(C(=O)N(Cc3cc(Cl)c(-c4ccccc4)cn3)[C@@H]3CCCc4cccnc43)cc2nc1N [Example A8, (R)-5-amino-N-((4-chloro-5-phenylpyridin-2-yl)methyl)-6-methyl-N-(5,6,7,8-tetrahydroquinolin-8-yl)-1H-pyrrolo[3,2-b]pyridine-2-carboxamide] | < 4.6 | 2040
11 | CO[C@H]1C[C@H](N(Cc2ccc(-c3ccccc3)cn2)C(=O)c2cc3nc(N)c(C)cc3[nH]2)C1 [Example B6, 5-amino-N-((1r,3r)-3-methoxycyclobutyl)-6-methyl-N-((5-phenylpyridin-2-yl)methyl)-1H-pyrrolo[3,2-b]pyridine-2-carboxamide] | 1730 | > 10000
12 | Cc1cc2[nH]c(C(=O)N(Cc3ccc(-c4cn[nH]c4)c(C)n3)C3CCCc4cccnc43)cc2nc1N (stereo not shown) [Example A9, 5-amino-6-methyl-N-((6-methyl-5-(1H-pyrazol-4-yl)pyridin-2-yl)methyl)-N-(5,6,7,8-tetrahydroquinolin-8-yl)-1H-pyrrolo[3,2-b]pyridine-2-carboxamide] | 86 | 4180
13 | Cc1cc2[nH]c(C(=O)N(Cc3ccc(-c4ccccc4)cn3)C3CC3)cc2nc1N [Example B4, 5-amino-N-cyclopropyl-6-methyl-N-((5-phenylpyridin-2-yl)methyl)-1H-pyrrolo[3,2-b]pyridine-2-carboxamide] | 7820 | > 10000
14 | Cc1cc2[nH]c(C(=O)N(Cc3ccc(-c4c(F)cccc4F)cn3)C3CCCc4c(C(C)(C)O)ccnc43)cc2nc1N (stereo not shown) [Example A7, 5-amino-N-((5-(2,6-difluorophenyl)pyridin-2-yl)methyl)-N-(4-(2-hydroxypropan-2-yl)-5,6,7,8-tetrahydroquinolin-8-yl)-6-methyl-1H-pyrrolo[3,2-b]pyridine-2-carboxamide] | < 4.6 | 339
15 | Cc1cc2[nH]c(C(=O)N(Cc3ccc(-c4c(F)cccc4C#N)cn3)C3CCCc4cccnc43)cc2nc1N (stereo not shown) [Example A15, 5-amino-N-((5-(2-cyano-6-fluorophenyl)pyridin-2-yl)methyl)-6-methyl-N-(5,6,7,8-tetrahydroquinolin-8-yl)-1H-pyrrolo[3,2-b]pyridine-2-carboxamide] | 4.3 | 424
16 | CO[C@H]1C[C@@H](N(Cc2ccc(-c3ccccc3)cn2)C(=O)c2cc3nc(N)c(C)cc3[nH]2)C1 [Example B7, 5-amino-N-((1s,3s)-3-methoxycyclobutyl)-6-methyl-N-((5-phenylpyridin-2-yl)methyl)-1H-pyrrolo[3,2-b]pyridine-2-carboxamide] | 2050 | > 10000
17 | Cc1cc2[nH]c(C(=O)N(Cc3ccc(-c4c(F)cccc4Cl)cn3)C3CCCc4cccnc43)cc2nc1N (stereo not shown) [Example A14, 5-amino-N-((5-(2-chloro-6-fluorophenyl)pyridin-2-yl)methyl)-6-methyl-N-(5,6,7,8-tetrahydroquinolin-8-yl)-1H-pyrrolo[3,2-b]pyridine-2-carboxamide] | 2.9 | 1120
18 | Cc1cc2[nH]c(C(=O)N(Cc3ccc(-c4ccccc4)cn3)C3CCC3)cc2nc1N [Example B1, 5-amino-N-cyclobutyl-6-methyl-N-((5-phenylpyridin-2-yl)methyl)-1H-pyrrolo[3,2-b]pyridine-2-carboxamide] | 359 | > 10000
19 | Cc1cc2[nH]c(C(=O)N(Cc3ccc(-c4ccccc4)cn3)[C@@H]3CCCc4cccnc43)cc2nc1N [Example A2, (R)-5-amino-6-methyl-N-((5-phenylpyridin-2-yl)methyl)-N-(5,6,7,8-tetrahydroquinolin-8-yl)-1H-pyrrolo[3,2-b]pyridine-2-carboxamide] | < 0.5 | 486
20 | Nc1nc2cc(C(=O)N(Cc3ccc(-c4c(F)cccc4F)cn3)[C@@H]3CCCc4cccnc43)[nH]c2cc1Br [Example A12, (R)-5-amino-6-bromo-N-((5-(2,6-difluorophenyl)pyridin-2-yl)methyl)-N-(5,6,7,8-tetrahydroquinolin-8-yl)-1H-pyrrolo[3,2-b]pyridine-2-carboxamide] | < 4.6 | 661
21 | Cc1cc2[nH]c(C(=O)N(Cc3ccc(-c4ncnn4C)cn3)[C@@H]3CCCc4cccnc43)cc2nc1N [Example A13, (R)-5-amino-6-methyl-N-((5-(1-methyl-1H-1,2,4-triazol-5-yl)pyridin-2-yl)methyl)-N-(5,6,7,8-tetrahydroquinolin-8-yl)-1H-pyrrolo[3,2-b]pyridine-2-carboxamide] | 83 | > 10000
22 | Cc1cc2[nH]c(C(=O)N(Cc3ccc(-c4ccccn4)cn3)C3CCCc4cccnc43)cc2nc1N (stereo not shown) [Example A16, N-([2,3′-bipyridin]-6′-ylmethyl)-5-amino-6-methyl-N-(5,6,7,8-tetrahydroquinolin-8-yl)-1H-pyrrolo[3,2-b]pyridine-2-carboxamide] | 17 | 1640
23 | Cc1cc2[nH]c(C(=O)N(Cc3ccc(-c4c(F)cccc4F)cn3)[C@@H]3CCCc4cccnc43)cc2nc1N [Example A1, (R)-5-amino-N-((5-(2,6-difluorophenyl)pyridin-2-yl)methyl)-6-methyl-N-(5,6,7,8-tetrahydroquinolin-8-yl)-1H-pyrrolo[3,2-b]pyridine-2-carboxamide] | < 0.5 | 155
